Patent US12065436B2, “Cardiac sarcomere inhibitors” (Cytokinetics, Inc., priority 2018, dated 2024)

Molecular target: bovine cardiac myofibrils (full-length cardiac myosin ATPase in the native sarcomere) (Bos taurus (Bovine), UniProt Q9BE39)
Test: Skinned bovine cardiac myofibril ATPase assay (PK/LDH-coupled)
Type: biochemical
Conditions: Ca2+ activating to 75% of maximal rate; for CDMF75 IC15: concentration giving 15% inhibition; for IC50: read-out: CDMF75 IC50
Experimental: To evaluate the effect of compounds on the ATPase activity of full-length cardiac myosin in the context of the native sarcomere, skinned myofibril assays were performed. Bovine cardiac myofibrils were obtained by homogenizing bovine cardiac left ventricular tissue in the presence of a detergent such as triton X-100. Such treatment removes membranes and a majority of the soluble cytoplasmic proteins but leaves intact the cardiac sarcomeric acto-myosin apparatus. Myofibril preparations retain the ability to hydrolyze ATP in an Ca^2+ regulated manner. ATPase activities of such myofibril preparations in the presence and absence of compounds were assayed at Ca^2+ concentrations activating to a defined fraction of the maximal rate (i.e., 25%, 75%). Small molecule agents were assessed for their ability to inhibit the steady-state ATPase activity of bovine cardiac myofibrils using pyruvate kinase and lactate dehydrogenase (PK/LDH)-coupled enzyme system. This assay regenerates myosin-produced ADP into ATP by oxidizing NADH, producing an absorbance change at 340 nm. Prior to testing small molecule agents, the bovine cardiac myofibrils were assessed for their calcium responsiveness and the calcium concentration that achieves either a 50% (pCa50) or 75% (pCa75) activation of the myofibril system was chosen as the final condition for assessing the inhibitory activity of the small molecule agents. All enzymatic activity was measured in a buffered solution containing 12 mM PIPES (piperazine-N,N′-bis(2-ethanesulfonic acid), 2 mM magnesium chloride at pH 6.8 (PM 12 buffer). Final assay conditions were 1 mg/mL of bovine cardiac myofibrils, 4 U/mL pyruvate kinase, 6 U/mL lactate dehydrogenase, 50 μM ATP, 0.1 mg/mL BSA (bovine serum albumin), 10 ppm antifoam, 1 mM DTT, 0.5 mM NADH, 1.5 mM PEP, 0.6 mM EGTA, and an amount of CaCl2) sufficient to achieve either 50% or 75% activation of the myofibril ATPase activity.

Sequence of bovine cardiac myofibrils (full-length cardiac myosin ATPase in the native sarcomere) (Q9BE39 whole entry): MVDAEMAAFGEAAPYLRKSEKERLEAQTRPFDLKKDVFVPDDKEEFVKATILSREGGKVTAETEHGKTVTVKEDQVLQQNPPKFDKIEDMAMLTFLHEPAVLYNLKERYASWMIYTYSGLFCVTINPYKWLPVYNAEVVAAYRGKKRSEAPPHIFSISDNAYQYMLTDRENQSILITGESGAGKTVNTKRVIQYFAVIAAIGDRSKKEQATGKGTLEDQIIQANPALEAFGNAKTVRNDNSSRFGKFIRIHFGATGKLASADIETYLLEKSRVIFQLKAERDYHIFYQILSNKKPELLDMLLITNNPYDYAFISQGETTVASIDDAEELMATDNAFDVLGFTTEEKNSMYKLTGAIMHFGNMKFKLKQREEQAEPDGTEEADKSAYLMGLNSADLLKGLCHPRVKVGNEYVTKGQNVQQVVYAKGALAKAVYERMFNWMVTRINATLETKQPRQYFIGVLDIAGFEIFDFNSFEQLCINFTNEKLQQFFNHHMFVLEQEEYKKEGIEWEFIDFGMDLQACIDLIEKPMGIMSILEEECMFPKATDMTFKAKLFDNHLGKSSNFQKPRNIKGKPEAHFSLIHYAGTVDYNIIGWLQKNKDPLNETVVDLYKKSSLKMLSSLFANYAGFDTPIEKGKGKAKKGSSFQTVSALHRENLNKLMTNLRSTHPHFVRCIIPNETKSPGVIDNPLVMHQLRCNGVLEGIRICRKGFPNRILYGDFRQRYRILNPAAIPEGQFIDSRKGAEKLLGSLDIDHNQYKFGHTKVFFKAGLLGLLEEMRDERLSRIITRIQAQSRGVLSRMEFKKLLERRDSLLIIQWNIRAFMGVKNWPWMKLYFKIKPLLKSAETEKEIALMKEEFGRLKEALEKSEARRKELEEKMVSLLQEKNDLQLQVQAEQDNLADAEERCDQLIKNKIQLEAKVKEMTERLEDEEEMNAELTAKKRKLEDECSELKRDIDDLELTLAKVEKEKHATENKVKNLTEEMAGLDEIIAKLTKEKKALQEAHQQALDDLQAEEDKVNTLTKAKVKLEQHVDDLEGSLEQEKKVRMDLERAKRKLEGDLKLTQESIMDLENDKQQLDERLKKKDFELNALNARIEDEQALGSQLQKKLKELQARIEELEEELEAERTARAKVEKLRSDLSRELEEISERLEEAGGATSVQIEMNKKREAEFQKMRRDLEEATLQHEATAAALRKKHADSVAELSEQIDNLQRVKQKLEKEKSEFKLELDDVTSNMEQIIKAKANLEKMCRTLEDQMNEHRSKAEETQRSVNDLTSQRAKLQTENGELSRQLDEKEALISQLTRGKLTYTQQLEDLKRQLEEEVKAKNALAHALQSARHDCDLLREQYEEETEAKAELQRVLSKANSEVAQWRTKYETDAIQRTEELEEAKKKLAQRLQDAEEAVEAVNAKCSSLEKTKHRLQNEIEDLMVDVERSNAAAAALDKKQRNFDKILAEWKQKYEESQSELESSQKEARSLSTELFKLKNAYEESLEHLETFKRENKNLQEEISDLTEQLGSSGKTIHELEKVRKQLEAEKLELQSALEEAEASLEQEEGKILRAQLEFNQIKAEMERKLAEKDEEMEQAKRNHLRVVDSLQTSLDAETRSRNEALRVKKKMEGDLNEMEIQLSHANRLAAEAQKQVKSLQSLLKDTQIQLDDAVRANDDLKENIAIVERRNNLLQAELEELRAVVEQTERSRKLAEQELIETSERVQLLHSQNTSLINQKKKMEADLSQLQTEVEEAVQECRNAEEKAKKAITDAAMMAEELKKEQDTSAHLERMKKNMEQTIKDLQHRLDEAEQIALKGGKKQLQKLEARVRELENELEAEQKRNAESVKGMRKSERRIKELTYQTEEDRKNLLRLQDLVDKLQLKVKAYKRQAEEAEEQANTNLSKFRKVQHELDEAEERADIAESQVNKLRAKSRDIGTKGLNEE
Sequence of bovine cardiac myofibrils (full-length cardiac myosin ATPase in the native sarcomere) (P85100 whole entry partner): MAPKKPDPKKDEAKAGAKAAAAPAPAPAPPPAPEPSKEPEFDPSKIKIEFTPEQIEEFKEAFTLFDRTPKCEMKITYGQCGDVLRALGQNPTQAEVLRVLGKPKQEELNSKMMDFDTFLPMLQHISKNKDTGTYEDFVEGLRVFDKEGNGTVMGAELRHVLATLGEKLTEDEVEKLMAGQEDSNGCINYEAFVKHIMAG
Sequence of bovine cardiac myofibrils (full-length cardiac myosin ATPase in the native sarcomere) (Q3SZE5 whole entry partner): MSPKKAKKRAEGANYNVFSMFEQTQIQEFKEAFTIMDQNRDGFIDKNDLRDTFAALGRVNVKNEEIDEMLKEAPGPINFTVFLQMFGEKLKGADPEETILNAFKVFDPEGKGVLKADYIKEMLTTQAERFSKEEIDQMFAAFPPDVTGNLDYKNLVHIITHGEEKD

With `O=C(NC1CCc2cc(-c3noc(C(F)F)n3)ccc21)C(F)F` (stereo not drawn) [Compound 1, N-(5-(5-(difluoromethyl)-1,2,4-oxadiazol-3-yl)-2,3-dihydro-1H-inden-1-yl)-2,2-difluoroacetamide] the “CDMF75 IC15” value was 4.5 µM and the IC50 was 21.7 µM.

In the case of `Cc1nc(-c2ccc3c(c2)CCC3NC(=O)c2ccccc2)no1` (stereo not drawn) [Compound 2, N-(5-(5-methyl-1,2,4-oxadiazol-3-yl)-2,3-dihydro-1H-inden-1-yl)benzamide], the “CDMF75 IC15” value is reported as 0.6 µM and the IC50 is reported as 2 µM.

For `Cc1cc(C(=O)NC2CCc3cc(-c4noc(C)n4)ccc32)ccn1` (stereo not drawn) [Compound 3, 2-methyl-N-(5-(5-methyl-1,2,4-oxadiazol-3-yl)-2,3-dihydro-1H-inden-1-yl)isonicotinamide], the “CDMF75 IC15” value was 1.8 µM and the IC50 was 7 µM.

For `O=C(NC1CCc2cc(-c3noc(C(F)F)n3)ccc21)c1ccccc1` (stereo not drawn) [Compound 4, N-(5-(5-(difluoromethyl)-1,2,4-oxadiazol-3-yl)-2,3-dihydro-1H-inden-1-yl)benzamide], the “CDMF75 IC15” value was 0.43 µM and the IC50 was 1.6 µM.

`Cn1cncc1C(=O)NC1CCc2cc(-c3noc(C(F)F)n3)ccc21` (stereo not drawn) [Compound 6, N-(5-(5-(difluoromethyl)-1,2,4-oxadiazol-3-yl)-2,3-dihydro-1H-inden-1-yl)-1-methyl-1H-imidazole-5-carboxamide] was tested, and the “CDMF75 IC15” value was 0.7 µM and the IC50 was 3.4 µM.

With `Cn1cc(C(=O)NC2CCc3cc(-c4noc(C(F)F)n4)ccc32)cn1` (stereo not drawn) [Compound 7, N-(5-(5-(difluoromethyl)-1,2,4-oxadiazol-3-yl)-2,3-dihydro-1H-inden-1-yl)-1-methyl-1H-pyrazole-4-carboxamide] the “CDMF75 IC15” value was 1.1 µM and the IC50 was 4.8 µM.

With `O=C(NC1CCc2cc(-c3noc(C(F)F)n3)ccc21)c1cnc(Cl)s1` (stereo not drawn) [Compound 8, 2-chloro-N-(5-(5-(difluoromethyl)-1,2,4-oxadiazol-3-yl)-2,3-dihydro-1H-inden-1-yl)thiazole-5-carboxamide] the “CDMF75 IC15” value was 0.4 µM and the IC50 was 1.4 µM.

`Cc1ncc(C(=O)NC2CCc3cc(-c4noc(C(F)F)n4)ccc32)o1` (stereo not drawn) [Compound 9, N-(5-(5-(difluoromethyl)-1,2,4-oxadiazol-3-yl)-2,3-dihydro-1H-inden-1-yl)-2-methyloxazole-5-carboxamide] was tested, and the “CDMF75 IC15” value was 1.4 µM and the IC50 was 6.7 µM.

With `Cc1ncc(C(=O)NC2CCc3cc(-c4noc(C(F)F)n4)ccc32)s1` (stereo not drawn) [Compound 10, N-(5-(5-(difluoromethyl)-1,2,4-oxadiazol-3-yl)-2,3-dihydro-1H-inden-1-yl)-2-methylthiazole-5-carboxamide] the “CDMF75 IC15” value was 1.0 µM and the IC50 was 3.4 µM.

For `O=C(NC1CCc2cc(-c3noc(C(F)F)n3)ccc21)c1cncs1` (stereo not drawn) [Compound 11, N-(5-(5-(difluoromethyl)-1,2,4-oxadiazol-3-yl)-2,3-dihydro-1H-inden-1-yl)thiazole-5-carboxamide], the “CDMF75 IC15” value was 0.8 µM and the IC50 was 3.4 µM.

For `Cc1ncoc1C(=O)NC1CCc2cc(-c3noc(C(F)F)n3)ccc21` (stereo not drawn) [Compound 12, N-(5-(5-(difluoromethyl)-1,2,4-oxadiazol-3-yl)-2,3-dihydro-1H-inden-1-yl)-4-methyloxazole-5-carboxamide], the “CDMF75 IC15” value was 0.6 µM and the IC50 was 2 µM.

With `O=C(Nc1ccccc1)NC1CCc2cc(-c3noc(C(F)F)n3)ccc21` (stereo not drawn) [Compound 13, 1-(5-(5-(difluoromethyl)-1,2,4-oxadiazol-3-yl)-2,3-dihydro-1H-inden-1-yl)-3-phenylurea] the “CDMF75 IC15” value was 0.5 µM and the IC50 was 22.1 µM.

In the case of `CC(C)NC(=O)NC1CCc2cc(-c3noc(C(F)F)n3)ccc21` (stereo not drawn) [Compound 14, 1-(5-(5-(difluoromethyl)-1,2,4-oxadiazol-3-yl)-2,3-dihydro-1H-inden-1-yl)-3-isopropylurea], the “CDMF75 IC15” value is reported as 39.2 µM and the IC50 is reported as > 39.2 µM.

`Cc1nc(-c2ccc3c(c2)OCC3NC(=O)c2ccccc2)no1` (stereo not drawn) [Compound 15, N-(6-(5-methyl-1,2,4-oxadiazol-3-yl)-2,3-dihydrobenzofuran-3-yl)benzamide] was tested, and the “CDMF75 IC15” value was 0.6 µM and the IC50 was 2 µM.

For `CC(C)(C)OC(=O)NC1CCc2cc(-c3noc(C(F)F)n3)ccc21` (stereo not drawn) [Compound 16, tert-butyl (5-(5-(difluoromethyl)-1,2,4-oxadiazol-3-yl)-2,3-dihydro-1H-inden-1-yl)carbamate], the “CDMF75 IC15” value was 8.9 µM and the IC50 was > 39.2 µM.

With `CCc1nc(-c2cnc3c(c2)CCC3NC(=O)c2ccccc2)no1` (stereo not drawn) [Compound 17, N-(3-(5-ethyl-1,2,4-oxadiazol-3-yl)-6,7-dihydro-5H-cyclopenta[b]pyridin-7-yl)benzamide] the “CDMF75 IC15” value was 2.3 µM and the IC50 was 11.3 µM.

For `Cc1cc(C(=O)NC2COc3cc(-c4noc(C)n4)ccc32)ccn1` (stereo not drawn) [Compound 18, 2-methyl-N-(6-(5-methyl-1,2,4-oxadiazol-3-yl)-2,3-dihydrobenzofuran-3-yl)isonicotinamide], the “CDMF75 IC15” value was 1.1 µM and the IC50 was 6.8 µM.

`Cc1nc(C)c(C(=O)NC2CCc3cc(-c4noc(C(F)F)n4)ccc32)o1` (stereo not drawn) [Compound 19, N-(5-(5-(difluoromethyl)-1,2,4-oxadiazol-3-yl)-2,3-dihydro-1H-inden-1-yl)-2,4-dimethyloxazole-5-carboxamide] was tested, and the “CDMF75 IC15” value was 1.3 µM and the IC50 was 4.6 µM.

With `CCn1nc(C)c(C(=O)NC2CCc3cc(-c4noc(C(F)F)n4)ccc32)n1` (stereo not drawn) [Compound 20, N-(5-(5-(difluoromethyl)-1,2,4-oxadiazol-3-yl)-2,3-dihydro-1H-inden-1-yl)-2-ethyl-5-methyl-2H-1,2,3-triazole-4-carboxamide] the “CDMF75 IC15” value was 2.3 µM and the IC50 was > 39.2 µM.

For `O=C(NC1CCc2cc(-c3noc(C(F)F)n3)ccc21)c1ocnc1C1CC1` (stereo not drawn) [Compound 21, 4-cyclopropyl-N-(5-(5-(difluoromethyl)-1,2,4-oxadiazol-3-yl)-2,3-dihydro-1H-inden-1-yl)oxazole-5-carboxamide], the “CDMF75 IC15” value was 0.7 µM and the IC50 was 2.9 µM.

With `Cc1nc(C(=O)NC2CCc3cc(-c4noc(C(F)F)n4)ccc32)c(C)o1` (stereo not drawn) [Compound 22, N-(5-(5-(difluoromethyl)-1,2,4-oxadiazol-3-yl)-2,3-dihydro-1H-inden-1-yl)-2,5-dimethyloxazole-4-carboxamide] the “CDMF75 IC15” value was 5.5 µM and the IC50 was 28.2 µM.

With `Cc1cncc(C(=O)NC2CCc3cc(-c4noc(C(F)F)n4)ccc32)n1` (stereo not drawn) [Compound 23, N-(5-(5-(difluoromethyl)-1,2,4-oxadiazol-3-yl)-2,3-dihydro-1H-inden-1-yl)-6-methylpyrazine-2-carboxamide] the “CDMF75 IC15” value was 5.8 µM and the IC50 was 31.4 µM.

In the case of `Cc1cc(C(=O)NC2CCc3cc(-c4noc(C(F)F)n4)ccc32)cc(C)n1` (stereo not drawn) [Compound 24, N-(5-(5-(difluoromethyl)-1,2,4-oxadiazol-3-yl)-2,3-dihydro-1H-inden-1-yl)-2,6-dimethylisonicotinamide], the “CDMF75 IC15” value is reported as 2.1 µM and the IC50 is reported as 8 µM.

With `CCc1nn(C)cc1C(=O)NC1CCc2cc(-c3noc(C(F)F)n3)ccc21` (stereo not drawn) [Compound 25, N-(5-(5-(difluoromethyl)-1,2,4-oxadiazol-3-yl)-2,3-dihydro-1H-inden-1-yl)-3-ethyl-1-methyl-1H-pyrazole-4-carboxamide] the “CDMF75 IC15” value was 3.9 µM and the IC50 was 16.5 µM.

With `Cc1nccc(C(=O)NC2CCc3cc(-c4noc(C(F)F)n4)ccc32)n1` (stereo not drawn) [Compound 26, N-(5-(5-(difluoromethyl)-1,2,4-oxadiazol-3-yl)-2,3-dihydro-1H-inden-1-yl)-2-methylpyrimidine-4-carboxamide] the “CDMF75 IC15” value was 7.8 µM and the IC50 was 30.5 µM.

`Cc1c(C(=O)NC2CCc3cc(-c4noc(C(F)F)n4)ccc32)cnn1C` (stereo not drawn) [Compound 27, N-(5-(5-(difluoromethyl)-1,2,4-oxadiazol-3-yl)-2,3-dihydro-1H-inden-1-yl)-1,5-dimethyl-1H-pyrazole-4-carboxamide] was tested, and the “CDMF75 IC15” value was 0.8 µM and the IC50 was 3.3 µM.

For `Cc1nn(C)cc1C(=O)NC1CCc2cc(-c3noc(C(F)F)n3)ccc21` (stereo not drawn) [Compound 28, N-(5-(5-(difluoromethyl)-1,2,4-oxadiazol-3-yl)-2,3-dihydro-1H-inden-1-yl)-1,3-dimethyl-1H-pyrazole-4-carboxamide], the “CDMF75 IC15” value was 0.8 µM and the IC50 was 3.4 µM.

`CCn1nccc1C(=O)NC1CCc2cc(-c3noc(C(F)F)n3)ccc21` (stereo not drawn) [Compound 29, N-(5-(5-(difluoromethyl)-1,2,4-oxadiazol-3-yl)-2,3-dihydro-1H-inden-1-yl)-1-ethyl-1H-pyrazole-5-carboxamide] was tested, and the “CDMF75 IC15” value was 1.2 µM and the IC50 was 5.3 µM.

With `Cc1cc(C(=O)NC2CCc3cc(-c4noc(C(F)F)n4)ccc32)n(C)n1` (stereo not drawn) [Compound 30, N-(5-(5-(difluoromethyl)-1,2,4-oxadiazol-3-yl)-2,3-dihydro-1H-inden-1-yl)-1,3-dimethyl-1H-pyrazole-5-carboxamide] the “CDMF75 IC15” value was 0.8 µM and the IC50 was 2.3 µM.

In the case of `Cc1cc(C(=O)N[C@@H]2CCc3cc(-c4noc(C(F)F)n4)ccc32)ccn1` [Compound 32, (R)-N-(5-(5-(difluoromethyl)-1,2,4-oxadiazol-3-yl)-2,3-dihydro-1H-inden-1-yl)-2-methylisonicotinamide], the “CDMF75 IC15” value is reported as 0.6 µM and the IC50 is reported as 2.3 µM.
